Results on 20 compounds are retold here after patent US8178688B2, “Benzamidine derivatives, process for the preparation thereof and pharmaceutical composition comprising the same” (Dong Wha Pharmaceutical Co., Ltd., priority 2004, dated 2012).

Like-named read-outs stand apart in the source and are kept apart here.

Data set [1] relates to osteoclast differentiation. Briefly: Inhibitory effects on osteoclast differentiation (co-culture of bone marrow cells with osteoblast, TRAP staining). The format is cell-based, mice. The settings on record: co-culture of bone marrow cells and osteoblast, 7 days, TRAP-positive osteoclasts versus controls; for inhibition at 1 µM: Mus musculus, Osteoclast, 168 h, read-out: % inhibitory activity on osteoclastogenesis. In a few lines: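 Percent inhibition versus control is based on microscope counts of TRAP-positive osteoclasts (3 or more nuclei) after 7 days of compound exposure. Cultures paired ddY mouse marrow cells with ICR calvarial osteoblasts, driven by dexamethasone 10^−7M plus vitamin D3 10^−8M, with medium and compound changed every 2–3 days.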

The test system of data set [2] is ovariectomized ddY mouse. The data set can be described thus: Therapeutic effect in the ovariectomized osteoporetic mouse model (trabecular bone volume of the femur). The format is in vivo, ddY mice. The settings on record: 50 mg/kg/day oral gavage for 4 weeks from 4 weeks after ovariectomy, salts (methansulfonic acid or HCl); for change in vivo at 50 mg/kg: Mus musculus, 672 h, read-out: Changes on TBV (% changes vs vehicle control). The method, then: The therapeutic effects of each benzamidine derivates were evaluated on the ovariectomized ddY mouse. Benzamidine derivates were dosed from 4 weeks after operation for 4 weeks and the changes on the trabecular bone volume (TBV) of the femur were observed via histomorphometry.
Female ddY mice (6-wk old upon receipt, SLC, Japan) were used after acclimatization for 7 days. Animals were allocated 5 per polycarbonate cage in a temperature (20-25° C.) and humidity (30-35%) controlled room. Light:dark cycle was 12 hr:12 hr and feed (Samyang, Korea) and water were supplied free to access.
Salts of benzamidine derivates (Methansulfonic acid or HCl) were used for the test substances of this invention. Test substances are dissolved and/or suspended in injectable distilled water and administered at a dosage volume of 10 ml/kg by oral gavage. All test substances are dosed from 4 weeks after operation for 4 weeks at 50 mg/kg/day.
To induce estrogen-deficient osteoporosis, bilateral ovaries are removed and then closed by routine methods. Operation was conduct under Ketamine hydrochloride and xylazine hydrochloride anesthesia.
The left femur of each mouse were separated at sacrifice, and fixed in 10% neutral buffered formalin (NBF), then decalcified in decalcifying solution (24.4% formic acid, and 0.5N sodium hydroxide) for 5 days (mixed decalcifying solution was exchanges once a day for 5 days). After the dexalcification, the femur was embedded in paraffin, sectioned (3˜4 μm) and stained with hematoxylin-eosin stain.
TBV was calculated using automated image analysis (analySIS Image Processing; SIS, Germany) under magnification of ×200 in the uniform area of trochlea epiphyseal regions (growth plate regions were excluded) of prepared histological specimens. TBV was calculated as percentage (%) levels.
The changes of TBV compared to that of vehicle control are calculated as following Equation 1 to help the understanding of the efficacy of test substances. Percentage changes=[((TBV of a−TBV of b)/TBV of b)×100] Equation 1

Data set [3] relates to cells. The data set can be described thus: Cytotoxicity test (MTT). It is filed as cell-based. The settings on record: 10^−6M, 72 hrs, compared with the control group. The protocol: Cytotoxic effect of benzamidine derivatives was evaluated by the experiment described below.
The test substance was diluted in appropriate solvent at 10^−2M concentration. […] Cells to be used in cytotoxitic test were plated on a 96-well microplate in a dose of 1×10^4 cell/100 μL per well and cultured for 72 hrs. 25 μL of MTT [3-(4,5-dimethyl-2-thiazolyl)-2,5-diphenyl-2H-tetrazolium bromide] dissolved in PBS at 2 mg/mL were added before 4 hrs of the end of culture. After reaction, the plates were centrifuged, medium was decanted and 100 μL of DMSO was added to dissolve formazan. Lastly, the absorbance of developed plates was measured at 540 nm.

For `Cc1nc(-c2ccc(OCCCCCOc3ccc(C(=N)NO)cc3)cc2)c(C2CCCC2)s1` [Example 43, N-hydroxy-4-(5-[4-(5-cyclopentyl-2-methyl-1,3-thiazol-4-yl)phenoxy]pentoxy)-benzamidine], the inhibition at 1 µM in data set [1] (1 μm) amounted to 98.6%. For the same compound, in data set [2], the change in vivo at 50 mg/kg was 155%.
With `CCCNc1nc(-c2ccc(OCCCCCOc3ccc(C(=N)NO)cc3)cc2)c(CC2CCCC2)s1` [Example 111, N-hydroxy-4-(5-[4-(5-cyclopentylmethyl-2-propylamino-1,3-thiazol-4-yl)phenoxy]pentoxy)-benzamidine], the inhibition at 1 µM in data set [1] (1 m) worked out at 99.5%. The change in vivo at 50 mg/kg in data set [2] worked out at 69.3%.
As for `Cc1sc(N(C)Cc2ccccc2)nc1-c1ccc(OCCCCCOc2ccc(C(=N)NO)cc2)cc1` [Example 125, N-hydroxy-4-(5-[4-(2-(benzyl-methyl-amino)-5-methyl-1,3-thiazol-4-yl)phenoxy]pentoxy)-benzamidine], the inhibition at 1 µM in data set [1] (1 m) is 73%. Moreover, the results for the “Survival rates of the cells” value in data set [3] (MC3T3-E1 cells) and in data set [3] (ST2 cells) were 57.6% and 47.9%, respectively.
For `CCc1sc(N(CC)CCO)nc1-c1ccc(OCCCCCOc2ccc(C(=N)NO)cc2)cc1` [Example 130, N-hydroxy-4-(5-[4-(5-ethyl-2-(ethyl-(2-hydroxyethyl)-amino)-1,3-thiazol-4-yl)phenoxy]pentoxy)-benzamidine] the same measures were 55.8%, 100.0% and 37.2%.
On to `CCc1sc(N(C)Cc2ccccc2)nc1-c1ccc(OCCCCCOc2ccc(C(=N)NO)cc2)cc1` [Example 133, N-hydroxy-4-(5-[4-(2-(benzyl-methyl-amino)-5-ethyl-1,3-thiazol-4-yl)phenoxy]pentoxy)-benzamidine], for which the inhibition at 1 µM in data set [1] (1 m) stood at 76.6%. The “Survival rates of the cells” value in data set [3] (MC3T3-E1 cells) stood at 62.6%; in data set [3] (ST2 cells) it was 46.4%.
In the case of `CCc1sc(N(C)Cc2cccnc2)nc1-c1ccc(OCCCCCOc2ccc(C(=N)NO)cc2)cc1` [Example 134, N-hydroxy-4-(5-[4-(5-ethyl-2-(methyl-(pyridin-3-yl-methyl)amino)-1,3-thiazol-4-yl)phenoxy]pentoxy)-benzamidine], the inhibition at 1 µM in data set [1] (1 m) came to 63.7%. Moreover, the “Survival rates of the cells” value in data set [3] (MC3T3-E1 cells) was 43.9%; in data set [3] (ST2 cells), 37.4%.
For `CCc1sc(N(CC)Cc2cccnc2)nc1-c1ccc(OCCCCCOc2ccc(C(=N)NO)cc2)cc1` [Example 136, N-hydroxy-4-(5-[4-(5-ethyl-2-(ethyl-(pyridin-3-yl-methyl)amino)-1,3-thiazol-4-yl)phenoxy]pentoxy)-benzamidine] the same measures were 49.2%, 48.5% and 29.9%.
The matching figures for `CCc1sc(N(CCO)CCO)nc1-c1ccc(OCCCCCOc2ccc(C(=N)NO)cc2)cc1` [Example 139, N-hydroxy-4-(5-[4-(2-(bis-(2-hydroxyethyl)amino)-5-ethyl-1,3-thiazol-4-yl)phenoxy]pentoxy)-benzamidine]: 84.1%, 77.4% and 48.1%.
The matching figures for `CC(C)c1sc(N(C)Cc2cccnc2)nc1-c1ccc(OCCCCCOc2ccc(C(=N)NO)cc2)cc1` [Example 141, N-hydroxy-4-(5-[4-(5-isopropyl-2-(methyl-(pyridin-3-yl-methyl)amino)-1,3-thiazol-4-yl)phenoxy]pentoxy)-benzamidine]: 74.8%, 52.8% and 27.9%.
Turning to `CCCCc1sc(N(C)Cc2cccnc2)nc1-c1ccc(OCCCCCOc2ccc(C(=N)NO)cc2)cc1` [Example 145, N-hydroxy-4-(5-[4-(5-butyl-2-(methyl-(pyridin-3-yl-methyl)amino)-1,3-thiazol-4-yl)phenoxy]pentoxy)-benzamidine], the inhibition at 1 µM in data set [1] (1 m) came to 96.2%. The change in vivo at 50 mg/kg in data set [2] turned out to be 91.7%.
As to `CCCCc1sc(N(CCC)CCC)nc1-c1ccc(OCCCCCOc2ccc(C(=N)NO)cc2)cc1` [Example 146, N-hydroxy-4-(5-[4-(5-butyl-2-dipropylamino-1,3-thiazol-4-yl)phenoxy]pentoxy)-benzamidine], the inhibition at 1 µM in data set [1] (1 m) was determined as 94.4%. Further, the figures for the “Survival rates of the cells” value in data set [3] (MC3T3-E1 cells) and in data set [3] (ST2 cells) were 88.4% and 38.2%, respectively.
The matching figures for `CN(Cc1cccnc1)c1nc(-c2ccc(OCCCCCOc3ccc(C(=N)NO)cc3)cc2)c(CC2CCCC2)s1` [Example 147, N-hydroxy-4-(5-[4-(5-cyclopentylmethyl-2-(methyl-(pyridin-3-yl-methyl)amino)-1,3-thiazol-4-yl)phenoxy]pentoxy)-benzamidine]: 81.1%, 100.0% and 42.4%.
As for `CCCCc1sc(N(C)C)nc1-c1ccc(OCCCCCOc2ccc(C(=N)NO)cc2)cc1` [Example 152, N-hydroxy-4-(5-[4-(5-butyl-2-dimethylamino-1,3-thiazol-4-yl)phenoxy]pentoxy)-benzamidine], the inhibition at 1 µM in data set [1] (1 m) was 83.8%. For the same compound, the change in vivo at 50 mg/kg in data set [2] turned out to be 71.5%.
Take `Cc1sc(N2CCOCC2)nc1-c1ccc(OCCCCCOc2ccc(C(=N)NO)cc2)cc1` [Example 165, N-hydroxy-4-(5-[4-(5-methyl-2-morpholino-1,3-thiazol-4-yl)phenoxy]pentoxy)-benzamidine]: the inhibition at 1 µM in data set [1] (1 m) was 66.9%. Also, the change in vivo at 50 mg/kg in data set [2] stood at 37.5%.
Take `CCc1sc(N2CCCCC2)nc1-c1ccc(OCCCCCOc2ccc(C(=N)NO)cc2)cc1` [Example 166, N-hydroxy-4-(5-[4-(5-ethyl-2-piperdino-1,3-thiazol-4-yl)phenoxy]pentoxy)-benzamidine]: the “% inhibitory activity on osteoclastogenesis” value in data set [1] amounted to 81.2%. Moreover, the “Survival rates of the cells” value in data set [3] (MC3T3-E1 cells) is given as 71.2%; in data set [3] (ST2 cells) it was 52.4%.
`N=C(NO)c1ccc(OCCCCCOc2ccc(-c3nc(N4CCCCC4)sc3CC3CCCC3)cc2)cc1` [Example 167, N-hydroxy-4-(5-[4-(5-cyclopentylmethyl-2-piperdino-1,3-thiazol-4-yl)phenoxy]pentoxy)-benzamidine]: in data set [1], the “% inhibitory activity on osteoclastogenesis” value was 99.0%. Besides, in data set [2], the “Changes on TBV (% changes vs vehicle control)” value was determined as 55.2%.
Regarding `N=C(NO)c1ccc(OCCCCCOc2ccc(-c3nc(N4CCOCC4)sc3CC3CCCC3)cc2)cc1` [Example 168, N-hydroxy-4-(5-[4-(5-cyclopentylmethyl-2-morpholino-1,3-thiazol-4-yl)phenoxy]pentoxy)-benzamidine], the inhibition at 1 µM in data set [1] (1 m) was determined as 87%. In addition, in data set [2], the change in vivo at 50 mg/kg was determined as 56.6%.
The matching figures for `Cc1nc(-c2ccc(OCCCCCNc3ccc(C(=N)NO)cc3)cc2)c(C(C)C)s1` [Example 177, N-hydroxy-4-(5-[4-(5-isopropyl-2-methyl-1,3-thiazol-4-yl)phenoxy]-pentylamino)-benzamidine]: 96.1% and 88.7%.
Regarding `Cc1nc(-c2ccc(OCCCN3CCN(CCCOc4ccc(C(=N)NO)cc4)CC3)cc2)c(C(C)C)s1` [Example 181, N-hydroxy-4-(3-[4-(3-(4-(5-isopropyl-2-methyl-1,3-thiazol-4-yl)-phenoxy)-propyl)-piperazin-1-yl]-propoxy)-benzamidine], in data set [1] (1 m), the inhibition at 1 µM came to 54.1%. Moreover, the “Survival rates of the cells” value in data set [3] (MC3T3-E1 cells) is 99.5%; in data set [3] (ST2 cells), 36.7%.
`Cc1nc(-c2ccc(OCC=CCOc3ccc(C(=N)NO)cc3)cc2)c(C(C)C)s1` [Example 184, N-hydroxy-4-(4-[4-(5-isopropyl-2-methyl-1,3-thiazol-4-yl)-phenoxy]-2-butenyloxy)-benzamidine]: in data set [1] (1 m), the inhibition at 1 µM was 74.5%. In data set [2], the change in vivo at 50 mg/kg is 147%.
